Where two headings read alike, the source gives them in different places.
Columns and labels:
[1] = system: NCI-H2052 Tet-On shYAP_2371 pLenti6 MCAT_Luc cells; experiment: Proliferation assay (resazurin), NCI-H2052; type: cell-based; details: 72 hours incubation
Summary of the method: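 The NCI-H2052 line carries a Tet-inducible shRNA against the YAP1 3′UTR and an MCAT luciferase reporter. The day after seeding, it received eleven 2-fold compound dilutions at 0.1% DMSO, and viability was read by resazurin fluorescence.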

MKN-45/Ubc-luc cells [2] = experiment: Reporter gene specificity control (Ubc-luciferase), MKN-45
[3] = system: NCI-H2052 Tet-On shYAP_2371 pLenti6 MCAT_Luc cells (YAP-dependent transcription); experiment: YAP reporter gene activity assay (MCAT-luciferase), NCI-H2052; type: cell-based; details: 24 hours incubation, BrightGlo luminescence
Summary of the method: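 NCI-H2052 cells carrying an MCAT-luciferase reporter and a tetracycline-inducible YAP 3′UTR shRNA were treated with eleven 2-fold compound dilutions (0.1% DMSO) for 24 h at 37 °C. BrightGlo luminescence was background-subtracted and expressed as % of DMSO control. IC50 came from a four-parameter fit; MKN-45/Ubc-luc cells served as the specificity counterscreen.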

MKN-45/Ubc-luc cells [4] = experiment: Proliferation assay (resazurin), MKN-45; type: cell-based; details: 72 hours incubation
[5] = molecular target: His-humanTEAD4 217-434 / N-biotinylated YAP 60-100 (Homo sapiens (Human), UniProt Q15561); experiment: TR-FRET YAP-TEAD4 biochemical assay, alternative format; type: binding; details: alternative format, marked with star *); 5 nM His-humanTEAD4 217-434, 10 nM N-biotinylated YAP 60-100
Method: […] Compounds were dissolved at 10 mM in 100% DMSO and serial dilutions were made in 100% DMSO. The diluted compound solutions were incubated in white 384-well plates (Greiner Bio-One) for 1 h at room temperature with the above described mix. The final DMSO concentration present in the assay was 1%. […] The IC50 values were estimated by fitting the data by nonlinear fit regression (GraphPad Prism).

[6] = molecular target: Avi-humanTEAD4 217-434 / Cy5 labeled humanYAP 60-100 (Homo sapiens (Human), UniProt Q15561); experiment: TR-FRET YAP-TEAD4 in-vitro biochemical assay; type: binding; details: 1 nM Avi-humanTEAD4 217-434, 20 nM Cy5-humanYAP 60-100, 1 h room temperature
[7] = read-out: Reporter gene assay MKN-45 IC50, MKN-45/Ubc-luc cells (YAP deleted, specificity control), 24 hours incubation
[8] = Homo sapiens, MKN-45, 24 h, read-out: Reporter gene assay MKN-45 IC50 [μM], MKN-45/Ubc-luc cells (YAP deleted, specificity control), 24 hours incubation

Sequence of His-humanTEAD4 217-434 / N-biotinylated YAP 60-100 (Q15561 217-434): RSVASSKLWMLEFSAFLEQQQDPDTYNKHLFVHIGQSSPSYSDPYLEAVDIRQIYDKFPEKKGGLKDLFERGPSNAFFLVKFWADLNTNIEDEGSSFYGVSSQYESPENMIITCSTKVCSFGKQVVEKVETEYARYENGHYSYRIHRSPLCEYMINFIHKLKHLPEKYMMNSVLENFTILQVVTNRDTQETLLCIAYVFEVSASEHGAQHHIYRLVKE
Sequence of Avi-humanTEAD4 217-434 / Cy5 labeled humanYAP 60-100 (Q15561 217-434): as above

SMILES | GI50 [1] [nM] | IC50 (MKN-45/Ubc-luc cells [2]; [7]) [µM] | IC50 [3] [nM] | GI50 (MKN-45/Ubc-luc cells [4]) [nM] | IC50 [5] [nM] | GI50 ([1]; Homo sapiens, NCI-H2052, 72 h) [nM] | IC50 (MKN-45/Ubc-luc cells [2]; [8]) [µM] | IC50 ([3]; Homo sapiens, NCI-H2052, 24 h) [nM] | GI50 (MKN-45/Ubc-luc cells [4]; Homo sapiens) [nM] | IC50 [6] [nM]
NC[C@@]1(c2ccccc2)Cc2c(cc(F)c(Cl)c2-c2c(F)cccc2C(N)=O)O1 [Example 32a, 2-((2S,4S)-2-(Aminomethyl)-5-chloro-6-fluoro-2-phenyl-2,3-dihydrobenzofuran-4-yl)-3-fluorobenzamide] |  |  |  |  | 33 | 833 | > 10 | 498 | 6120 | 
COc1ccc(C(N)=O)c(-c2c(Cl)ccc3c2C[C@@](CN[C@H]2CC[C@@H](C(=O)O)CC2)(c2ccccc2)O3)c1F (relative stereo) [Example 28b, (cis)-4-((((2S,4S)-4-(6-carbamoyl-2-fluoro-3-methoxyphenyl)-5-chloro-2-phenyl-2,3-dihydrobenzofuran-2-yl)methyl)amino)cyclohexanecarboxylic acid] | 148 | > 10 | 55 | > 10000 |  |  |  |  |  | 3
CNC[C@@]1(c2ccccc2)Cc2c(cc(F)c(Cl)c2-c2c(C(=O)NC)ccc(OC[C@H](C)O)c2F)O1 (atropisomer, axis not shown) [Example 52, 2-((2S,4S)-5-chloro-6-fluoro-2-((methylamino)methyl)-2-phenyl-2,3-dihydrobenzofuran-4-yl)-3-fluoro-4-((S)-2-hydroxypropoxy)-N-methylbenzamide] |  |  |  |  |  | 174 | > 10 | 109 | > 10000 | 11

Second part, the compound after the results:

GI50 [1] [nM] | IC50 (MKN-45/Ubc-luc cells [2]; [7]) [µM] | IC50 [3] [nM] | GI50 (MKN-45/Ubc-luc cells [4]) [nM] | IC50 [5] [nM] | GI50 ([1]; Homo sapiens, NCI-H2052, 72 h) [nM] | IC50 (MKN-45/Ubc-luc cells [2]; [8]) [µM] | IC50 ([3]; Homo sapiens, NCI-H2052, 24 h) [nM] | GI50 (MKN-45/Ubc-luc cells [4]; Homo sapiens) [nM] | IC50 [6] [nM] | SMILES
366 | > 20 | 239 | > 13300 | 18 |  |  |  |  |  | NC(=O)c1cccc(F)c1-c1c(Cl)ccc2c1C[C@@](CN[C@H]1CC[C@H](C(N)=O)CC1)(c1ccccc1)O2 (relative stereo) [Example 138a, 2-((2S,4S)-2-((((Trans)-4-carbamoylcyclohexyl)amino)methyl)-5-chloro-2-phenyl-2,3-dihydrobenzofuran-4-yl)-3-fluorobenzamide]
435 | 7.63 | 221 | > 10000 | 18 |  |  |  |  |  | NC(=O)c1cccc(F)c1-c1c(Cl)ccc2c1C[C@@](CN[C@H]1CC[C@@H](C(N)=O)CC1)(c1ccccc1)O2 (relative stereo) [Example 138b, 2-((2S,4S)-2-((((cis)-4-carbamoylcyclohexyl)amino)methyl)-5-chloro-2-phenyl-2,3-dihydrobenzofuran-4-yl)-3-fluorobenzamide]
240 |  | 203 |  |  |  | > 10 |  | > 10000 | 16 | CC(C)(O)C1CC(NC[C@@]2(c3ccccc3)Cc3c(cc(F)c(Cl)c3-c3c(C(N)=O)ccc(OC(F)F)c3F)O2)C1 (single isomer, unassigned) [Example 62a]

Source: patent US12083101B2, “Biaryl derivatives as YAP/TAZ-TEAD protein-protein interaction inhibitors” (Novartis AG, priority 2020, dated 2024)
